Results from patent publication US20160199434A1, “COMPOSITIONS AND METHODS FOR MODULATING DNA METHYLATION” (OHIO STATE INNOVATION FOUNDATION, priority 2013, published 2016).
Entries after “also recorded” stand apart in the source; their conditions may differ.

What was measured:
DNMT-1 [1] = assay: DNMT-1 mRNA expression by RT-PCR in MDA-MB-231 tumor cells; assay type: cell-based, human; conditions: 25 μM, 24 hours, compared to DMSO (FIG. 1B)
Method: FIGS. 1A-1E show DNA methyltransferase mRNA expression in vitro and in vivo. […] PyMT tumor cells were left untreated, were treated with DMSO, or were treated with AKB-6899 (10, 25, or 50 μM) for 24 hours. The cells were subjected to Trizol extraction to recover total RNA. cDNA was synthesized for RT-PCR of DNMT-1 and DNMT-3a mRNA expression. […] Human MDA-MB-231 tumor cells were left untreated, were treated with DMSO, or were treated with AKB-6899 (25 μM) for 24 hours. Total RNA was isolated for RT-PCR. FIG. 1C (DNMT-1), FIG. 1D (DNMT-3a), and FIG. 1E (DNMT-3b) compare the effect of AKB-6899 with the effect of 5-aza-2′deoxycytidine (5-AZA) as assessed by RT-PCR in human cervical tumors implanted in mice that were either untreated (UTX), treated with DMSO, treated with 5-AZA, or treated with AKB-6899 (17.5 mg/kg).
To determine whether the decrease in DNMT expression and the increase in DSP expression were relevant in human cancer, the level of desmoplakin expression in MDA-MB-231 human triple negative breast cancer cells was determined. […] (FIG. 3B).

DNMT-3b = DNMT-3b transcription in H1703 lung cancer cells; assay type: cell-based, human; conditions: H1703 cells in vitro, dose-dependent (FIG. 10A)
Description: (§1) In FIG. 10A, AKB-6899 inhibited DNMT-1, DNMT-3a, and DNMT-3b transcription in a dose-dependent manner in human squamous cell carcinoma lung cancer cells (H1703), in vitro. The DMSO-treated DNMT mRNAs are over 1.0, meaning the level of expression is higher than the housekeeping control gene, CAP1. In FIG. 10B, AKB-6899 inhibited DNMT-3a and DNMT-3b transcription in human adenocarcinoma lung cancer cells (A549). The DMSO-treated DNMT mRNAs are under 1.0, meaning the level of expression is lower than the housekeeping control gene, CAP1.

DNMT-3a [2] = assay: DNMT-3a transcription in H1703 lung cancer cells; assay type: cell-based, human; conditions: H1703 cells in vitro, dose-dependent (FIG. 10A)
Description: as §1

DSP mRNA = DSP mRNA expression in lungs of normal mice; assay type: in vivo, mouse; conditions: i.p., three weeks (FIG. 14C)
Method: (§2) FIGS. 14A-14C show the effects of systemic administration of AKB-6899. Mice were treated three times per week for three weeks with either i.p. AKB-6899 or i.p. DMSO. The lungs were removed and assayed to determine DNMT mRNA expression, percent CpG methylation, and fold change in mRNA. […] The data was standardized to 1.0 by the DMSO levels of the respective gene expression, (n=4 lungs per condition).

DNMT-3a [3] = assay: DNMT-3a mRNA expression in lungs of normal mice after systemic administration; assay type: in vivo, mouse; conditions: i.p. 17.5 mg/kg three times per week for three weeks, vs DMSO
Method: as §2

[4] = test system: desmoplakin (DSP) gene promoter; assay: Methylation of DSP promoter in MCF-7 breast cancer cells; assay type: cell-based, human
Method: FIGS. 3A-3E show the effect of AKB-6899 (25 μM) on methylation of the desmoplakin (DSP) gene promoter in PyMT breast cancer cells (3A), human MDA-MB-231 triple negative breast cancer cells (3B), human C8161.9 melanoma cells (3C), and human MCF-7 breast cancer cells (3D). In FIG. 3A, the DSP promoter was 100% unmethylated (AKB-6899) vs. 99.99% methylated (vehicle). In FIG. 3B, the DSP promoter was 99.62% unmethylated (AKB-6899) v. 99.89% (vehicle). In FIG. 3C, the DSP promoter was 99.90% unmethylated (AKB-6899) v. 42.04% (vehicle). In FIG. 3D, the DSP promoter was 92.48% unmethylated (AKB-6899) v. 98.48% (vehicle). In FIG. 3E, when compared to the vehicle (DMSO), treatment of PyMT cells with AKB-6899 increased DSP expression.
The gene expression signatures from the tumors of PyMT breast tumor-bearing mice that were treated with either vehicle or AKB-6899 were evaluated. […] Methylation-specific PCR on the desmoplakin promoter was performed. The level of hypomethylation was near complete.

c-Myc promoter = assay: Percent CpG methylation of c-Myc promoter in HeLa cells; assay type: cell-based, human; conditions: 5 or 25 μM, compared to DMSO and PBA (FIG. 6A)
Method: HeLa cervical cancer cells were left untreated, were treated with DMSO, were treated with 5-AZA, were treated with AKB-6899 (5 or 25 μM), or were treated with PBA (2 mM).

c-Myc = c-Myc expression (relative copy number) in human cervical tumors in animals; assay type: in vivo; conditions: animal models of human cervical tumors, 17.5 mg/kg (FIG. 7B)
Method: Animal models of human cervical tumors were untreated, treated with DMSO, treated with 5-AZA or treated with AKB-6899 (17.5 mg/kg).

DNMT-3a [5] = assay: DNMT-3a transcription in A549 lung cancer cells; assay type: cell-based, human; conditions: A549 cells (FIG. 10B)
Description: as §1

DSP promoter = assay: CpG methylation of DSP promoter in lungs of normal mice; assay type: in vivo, mouse; conditions: i.p., three weeks (FIG. 14B)
Method: as §2

RASSF1 mRNA = RASSF1 mRNA expression in lungs of normal mice; assay type: in vivo, mouse; conditions: i.p., three weeks (FIG. 14C)
Method: as §2

[6] = test system: panel of 14 common tumor suppressor genes; assay: mRNA expression of 14 tumor suppressor genes in H1703 cells; assay type: cell-based, human
Description: FIGS. 12A-12D show the level of mRNA expression for a panel of 14 common tumor suppressor genes in two types of human lung cancer cells (i.e., H1703 squamous cell carcinoma in FIG. 12A and A549 adenocarcinoma in FIG. 12B). […] All of the tumor suppressor mRNAs were augmented in response to AKB-6899 but one, the CDKN1C gene in A549 adenocarcinoma cells, in which expression levels were 0.1 (AKB10) and 0.9 (AKB50) compared to DMSO standardized to 1.0. In FIGS. 12A-12B, the following apply: “1”=DMSO, “2”=AKB-6899 (10 μM), “3”=AKB-6899 (50 μM), and “4”=combination of Decitabine (5 μM)/PBA (2 mM). FIGS. 12C and 12D are raw values for mRNA expression of these 14 genes.

DNMT-1 [7] = assay: DNMT-1 transcription in H1703 lung cancer cells; assay type: cell-based, human; conditions: H1703 cells in vitro, dose-dependent (FIG. 10A)
Description: as §1

O=C(O)CNC(=O)c1ncc(-c2cccc(F)c2)cc1O [AKB-6899, {[5-(3-Fluorophenyl)-3-hydroxypyridine-2-carbonyl]amino}acetic acid]
DNMT-1 mRNA expression (DNMT-1 [1]): significantly decreased; also recorded: downregulated | DNMT-3b transcription (DNMT-3b): inhibited | DNMT-3a transcription (DNMT-3a [2]): inhibited | DSP mRNA expression in lungs (DSP mRNA): increased | DNMT-3a expression in lungs (DNMT-3a [3]): inhibited | level of hypomethylation of desmoplakin promoter (in words) [4]: near complete | DSP promoter unmethylated ([4]; 25 μM (FIG. 3D)): 92.48% | demethylation of c-Myc promoter (percent CpG methylation) (c-Myc promoter): increase in demethylation | c-Myc expression (c-Myc): inhibited | DNMT-3a transcription (DNMT-3a [5]): inhibited | methylation of DSP promoter in lungs (DSP promoter): demethylated | RASSF1 mRNA expression in lungs (RASSF1 mRNA): increased | tumor suppressor mRNA expression ([6]; H1703, 10 μM and 50 μM, vs DMSO): augmented | induction of mRNA expression in H1703 compared with A549 ([6]; H1703 vs A549, Decitabine 5 μM/PBA 2 mM): more effective | DNMT-1 transcription (DNMT-1 [7]): inhibited
